Data taken from PubChem BioAssay (NCI).
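Results reflect a 48-hour exposure of cells in 96-well plates to compound at five concentrations. At the TGI there is no net growth.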

What was measured:
Test in all cases: growth of human tumour cells (NCI), 48 h
[1] = tested on: 786-0 renal
[2] = tested on: COLO 205 colon
[3] = tested on: HOP-92 NSCLC
[4] = tested on: HT29 colon
[5] = tested on: MDA-MB-435
[6] = tested on: MDA-N
[7] = tested on: MOLT-4 leukemia
[8] = tested on: OVCAR-5 ovarian
[9] = tested on: SF-268 CNS
[10] = tested on: UO-31 renal
[11] = tested on: HOP-62 NSCLC

Cc1[nH]n(-c2nc(O)c(-c3ccccc3)c(=O)[nH]2)c(=O)c1CCO was tested, and the TGI [1] was greater than 100 µM, the TGI [2] was greater than 100 µM and the TGI [3] was greater than 100 µM. The TGI [4] was greater than 100 µM, the TGI [5] was greater than 100 µM and the TGI [6] was greater than 100 µM. The TGI [7] was greater than 100 µM, the TGI [8] was greater than 100 µM and the TGI [9] was greater than 100 µM. The TGI [10] was greater than 100 µM.

NCCCNCCCCN1CCOC1=O was tested, and the TGI [1] was greater than 100 µM, the TGI [2] was greater than 100 µM and the TGI [11] was greater than 100 µM. The TGI [4] was greater than 100 µM, the TGI [5] was greater than 100 µM and the TGI [6] was greater than 100 µM. It also gave a TGI [7] greater than 100 µM, a TGI [8] greater than 100 µM and a TGI [9] greater than 100 µM. It also gave a TGI [10] greater than 100 µM.

Work on Cc1ccc(S(=O)(=O)C2=C(C(C)C)N=NC2(C)C)cc1 yielded a TGI [1] greater than 100 µM, a TGI [11] greater than 100 µM and a TGI [3] of 69.6 µM. For the same compound, the TGI [4] was greater than 100 µM, the TGI [5] was greater than 100 µM and the TGI [6] was greater than 100 µM. It also gave a TGI [7] greater than 100 µM, a TGI [8] greater than 100 µM and a TGI [9] greater than 100 µM. For the same compound, the TGI [10] was greater than 100 µM.

CC(=O)O[C@@]12CO[C@@H]1CC(O)[C@@]1(C)C(=O)[C@H](O)C3=C(C)C(O)C[C@@](O)(C(OC(=O)c4ccccc4)C12)C3(C)C (stereo partly specified) was tested, and the TGI [1] was greater than 100 µM, the TGI [2] was 6.72 µM and the TGI [11] was greater than 100 µM. The TGI [3] was greater than 100 µM, the TGI [4] was 23.8 µM and the TGI [5] was 0.413 µM. It also gave a TGI [7] greater than 31.6 µM, a TGI [8] greater than 29.1 µM and a TGI [9] greater than 100 µM. For the same compound, the TGI [10] was greater than 100 µM.

For CN1CCc2c(sc3[nH]c(=S)[nH]c(=S)c23)C1, the TGI [1] was greater than 100 µM, the TGI [2] was greater than 100 µM and the TGI [11] was greater than 100 µM. It also gave a TGI [3] greater than 100 µM, a TGI [4] greater than 100 µM and a TGI [5] greater than 100 µM. The TGI [6] was greater than 100 µM, the TGI [7] was greater than 100 µM and the TGI [8] was greater than 100 µM. The TGI [9] was greater than 100 µM.

For NC1(CCNC(=O)c2ccccc2)CCN(C(=O)c2ccccc2)CC1, the TGI [1] was greater than 100 µM, the TGI [2] was greater than 100 µM and the TGI [3] was greater than 100 µM. It also gave a TGI [4] greater than 100 µM, a TGI [5] greater than 100 µM and a TGI [6] greater than 100 µM. It also gave a TGI [7] greater than 100 µM, a TGI [8] greater than 100 µM and a TGI [9] greater than 100 µM. For the same compound, the TGI [10] was greater than 100 µM.

For COc1ccc(/C(Cl)=C(\C#N)c2ccc(OC)c(OC)c2)cc1OC, the TGI [1] was greater than 100 µM, the TGI [2] was greater than 100 µM and the TGI [11] was greater than 100 µM. It also gave a TGI [3] greater than 100 µM, a TGI [4] greater than 100 µM and a TGI [5] greater than 100 µM. The TGI [6] was greater than 100 µM, the TGI [7] was greater than 100 µM and the TGI [8] was greater than 100 µM. For the same compound, the TGI [10] was greater than 100 µM.

For NCCCN(CCCN)CCc1cn(C(=O)c2ccccc2)cn1, the TGI [1] was 25.6 µM, the TGI [2] was 9.58 µM and the TGI [11] was 23.4 µM. It also gave a TGI [3] of 13.2 µM, a TGI [4] of 29.5 µM and a TGI [5] of 14.3 µM. For the same compound, the TGI [6] was 40.5 µM, the TGI [7] was 17.9 µM and the TGI [8] was 33.4 µM. For the same compound, the TGI [9] was 24.2 µM.

CC1CC(Nc2ccc(Br)cc2)N(C(=O)c2ccc(Br)cc2)O1 (stereo unspecified) showed a TGI [1] greater than 10 µM, a TGI [2] greater than 10 µM and a TGI [11] greater than 10 µM. For the same compound, the TGI [4] was greater than 10 µM, the TGI [5] was greater than 10 µM and the TGI [6] was greater than 10 µM. For the same compound, the TGI [7] was greater than 10 µM, the TGI [8] was greater than 10 µM and the TGI [9] was greater than 10 µM. For the same compound, the TGI [10] was greater than 10 µM.

Work on CCOC(=O)CCC(NC(=O)c1ccc(NCc2ccc3nc(-c4ccccc4)c(Cl)nc3c2)cc1)C(=O)OCC (stereo unspecified) yielded a TGI [1] greater than 100 µM, a TGI [2] of 41.7 µM and a TGI [11] greater than 100 µM. For the same compound, the TGI [3] was 27.3 µM, the TGI [4] was greater than 100 µM and the TGI [7] was 44.9 µM. The TGI [8] was greater than 100 µM, the TGI [9] was greater than 100 µM and the TGI [10] was 65.8 µM.

Compound CCOC(=O)C(Cc1ccc(O)cc1)Nc1nc(=O)c2c(=O)oc(Cl)cc2o1 (stereo unspecified) has a TGI [1] of 22.3 µM, a TGI [2] of 37.9 µM and a TGI [11] of 26.7 µM. It also gave a TGI [3] of 25.9 µM, a TGI [4] of 13.2 µM and a TGI [5] of 20.4 µM. It also gave a TGI [7] of 10.1 µM, a TGI [8] of 34.7 µM and a TGI [9] of 17.3 µM. For the same compound, the TGI [10] was 23.8 µM.

With COc1cccc(-c2nc(-c3cnccn3)n(C/C=C/c3ccccc3)n2)c1 the TGI [1] was greater than 10 µM, the TGI [3] was greater than 10 µM and the TGI [4] was greater than 10 µM. For the same compound, the TGI [5] was greater than 10 µM, the TGI [6] was greater than 10 µM and the TGI [7] was greater than 10 µM. It also gave a TGI [8] greater than 10 µM, a TGI [9] greater than 10 µM and a TGI [10] greater than 10 µM.

With Cc1ccc(NC(=O)C(=O)C2C(=O)NC(=O)NC2=O)cc1C the TGI [1] was greater than 100 µM, the TGI [2] was greater than 100 µM and the TGI [11] was greater than 100 µM. The TGI [3] was greater than 100 µM, the TGI [4] was greater than 100 µM and the TGI [7] was greater than 100 µM. The TGI [8] was greater than 100 µM, the TGI [9] was greater than 100 µM and the TGI [10] was greater than 100 µM.

Compound CC(NC(=O)Cc1ccccc1)NC(=O)C(C)C(=O)NCc1ccccc1 (stereo unspecified) has a TGI [1] greater than 100 µM, a TGI [2] greater than 100 µM and a TGI [3] of 88.8 µM. The TGI [4] was greater than 100 µM, the TGI [5] was greater than 100 µM and the TGI [6] was greater than 100 µM. It also gave a TGI [7] greater than 100 µM, a TGI [8] greater than 100 µM and a TGI [9] greater than 100 µM. It also gave a TGI [10] greater than 100 µM.

Work on CN1CCN(/C(N)=C(\C#N)C(=O)Nc2ccc(Cl)cc2)CC1 yielded a TGI [1] greater than 100 µM, a TGI [2] of 35.2 µM and a TGI [11] greater than 100 µM. The TGI [3] was greater than 100 µM, the TGI [4] was greater than 100 µM and the TGI [5] was greater than 100 µM. The TGI [6] was greater than 100 µM, the TGI [7] was greater than 100 µM and the TGI [8] was greater than 100 µM. It also gave a TGI [10] greater than 100 µM.

Compound CC(=O)O[C@]12CCCCCC1C1(O)C(O)CCCCC12 (stereo partly specified) has a TGI [1] greater than 100 µM, a TGI [2] greater than 100 µM and a TGI [11] greater than 100 µM. The TGI [4] was greater than 100 µM, the TGI [7] was greater than 100 µM and the TGI [9] was greater than 100 µM. The TGI [10] was greater than 100 µM.

For COc1ccc(/C=N/N=C(\N)NO)c(OC)c1C, the TGI [1] was 67.7 µM, the TGI [2] was 30.7 µM and the TGI [11] was 36.7 µM. The TGI [3] was 72.5 µM, the TGI [4] was greater than 100 µM and the TGI [7] was greater than 100 µM. It also gave a TGI [8] of 7.69 µM, a TGI [9] greater than 100 µM and a TGI [10] of 31.7 µM.

O=c1cc(NNc2cccc(Cl)c2)[nH]c(=O)[nH]1 was tested, and the TGI [1] was 31 µM, the TGI [2] was greater than 100 µM and the TGI [3] was 35.5 µM. It also gave a TGI [4] greater than 100 µM, a TGI [6] greater than 100 µM and a TGI [7] of 60.1 µM. For the same compound, the TGI [8] was greater than 100 µM, the TGI [9] was greater than 100 µM and the TGI [10] was greater than 100 µM.

In the case of CCOC(=O)c1c(OCC)[nH]c(=O)c(C(c2cccs2)c2c(O)c(C(=O)OCC)c(OCC)[nH]c2=O)c1O, the TGI [1] is reported as 59.3 µM, the TGI [2] is reported as 40.7 µM and the TGI [11] is reported as 35.8 µM. For the same compound, the TGI [3] was 48.2 µM, the TGI [4] was 35.3 µM and the TGI [5] was 32.4 µM. The TGI [7] was 22.5 µM, the TGI [8] was greater than 100 µM and the TGI [9] was 35 µM. For the same compound, the TGI [10] was 26.7 µM.

Cc1ccc(CSC(N)=Nc2ccccc2)cc1C gave a TGI [1] of 44.7 µM, a TGI [2] of 41.5 µM and a TGI [11] of 49.1 µM. It also gave a TGI [3] of 45.7 µM, a TGI [4] of 40.1 µM and a TGI [5] of 30.7 µM. For the same compound, the TGI [6] was 43.8 µM, the TGI [7] was 75.4 µM and the TGI [8] was 56.4 µM. The TGI [9] was 36.7 µM.

CC1(C)OP(=O)(O)C=C1Sc1ccc([N+](=O)[O-])cc1[N+](=O)[O-] showed a TGI [1] greater than 100 µM, a TGI [2] greater than 100 µM and a TGI [11] greater than 100 µM. The TGI [3] was greater than 100 µM, the TGI [4] was greater than 100 µM and the TGI [5] was greater than 100 µM. The TGI [6] was greater than 100 µM, the TGI [8] was greater than 100 µM and the TGI [9] was greater than 100 µM.
